# Assay results: paper PMC3179844 (Chemmedchem, 2011)
# Tests used:
# [1] = Water solubility in Na2HPO4 buffer solution; format: physicochemical; conditions: aqueous buffer
# mouse 11β-HSD1 = mouse 11β-HSD1 (Mus musculus, UniProt P50172); experiment: Cellular 11β-HSD1 inhibition, mouse enzyme; format: cell-based; conditions: mean of three measurements
# [2] = Metabolism studies in human liver microsomes; format: in vitro ADME; conditions: for metabolites identified / half-life: human liver microsomes, 37 °C, NADPH; for microsomal CLint / half-life: human, liver microsomes; for half-life: 40 min, mean of two measurements
# [3] = target: T1, human cytochrome P450 1A2 (Homo sapiens, UniProt P05177); experiment: Inhibition of human cytochrome P450 1A2; format: in vitro ADME
# T1 sequence (P05177 1-516): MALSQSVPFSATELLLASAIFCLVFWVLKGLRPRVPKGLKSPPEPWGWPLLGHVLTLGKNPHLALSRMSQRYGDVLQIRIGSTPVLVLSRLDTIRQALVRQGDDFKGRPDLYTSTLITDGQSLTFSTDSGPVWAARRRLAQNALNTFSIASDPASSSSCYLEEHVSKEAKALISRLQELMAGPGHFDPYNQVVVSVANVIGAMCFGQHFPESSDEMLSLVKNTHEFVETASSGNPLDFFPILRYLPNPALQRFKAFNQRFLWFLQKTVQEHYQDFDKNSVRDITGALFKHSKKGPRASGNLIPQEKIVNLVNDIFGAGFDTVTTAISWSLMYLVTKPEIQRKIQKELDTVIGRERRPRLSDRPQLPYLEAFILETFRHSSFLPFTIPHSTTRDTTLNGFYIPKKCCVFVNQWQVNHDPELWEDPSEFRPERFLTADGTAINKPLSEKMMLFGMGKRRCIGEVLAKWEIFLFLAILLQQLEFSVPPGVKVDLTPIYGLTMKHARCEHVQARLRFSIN
# [4] = target: human cytochrome P450 2C9 (Homo sapiens, UniProt P11712); experiment: Inhibition of human cytochrome P450 2C9; format: in vitro ADME
# human cytochrome P450 2C9, sequence (P11712 whole entry): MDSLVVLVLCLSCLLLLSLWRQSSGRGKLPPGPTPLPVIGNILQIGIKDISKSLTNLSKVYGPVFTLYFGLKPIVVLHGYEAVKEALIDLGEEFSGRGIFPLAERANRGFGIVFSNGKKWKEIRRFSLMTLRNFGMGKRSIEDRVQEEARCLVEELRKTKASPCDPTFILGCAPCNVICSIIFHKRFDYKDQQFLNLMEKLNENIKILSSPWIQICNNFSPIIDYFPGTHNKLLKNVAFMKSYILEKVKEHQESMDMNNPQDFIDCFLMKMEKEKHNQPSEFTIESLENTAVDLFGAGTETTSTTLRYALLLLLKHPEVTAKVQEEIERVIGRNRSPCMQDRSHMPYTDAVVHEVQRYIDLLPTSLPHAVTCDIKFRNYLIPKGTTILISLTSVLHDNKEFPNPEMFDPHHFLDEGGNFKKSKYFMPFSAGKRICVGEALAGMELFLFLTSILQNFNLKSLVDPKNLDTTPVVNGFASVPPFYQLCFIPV
# [5] = target: human cytochrome P450 2C19 (Homo sapiens, UniProt P33261); experiment: Inhibition of human cytochrome P450 2C19; format: in vitro ADME
# human cytochrome P450 2C19, sequence (P33261 whole entry): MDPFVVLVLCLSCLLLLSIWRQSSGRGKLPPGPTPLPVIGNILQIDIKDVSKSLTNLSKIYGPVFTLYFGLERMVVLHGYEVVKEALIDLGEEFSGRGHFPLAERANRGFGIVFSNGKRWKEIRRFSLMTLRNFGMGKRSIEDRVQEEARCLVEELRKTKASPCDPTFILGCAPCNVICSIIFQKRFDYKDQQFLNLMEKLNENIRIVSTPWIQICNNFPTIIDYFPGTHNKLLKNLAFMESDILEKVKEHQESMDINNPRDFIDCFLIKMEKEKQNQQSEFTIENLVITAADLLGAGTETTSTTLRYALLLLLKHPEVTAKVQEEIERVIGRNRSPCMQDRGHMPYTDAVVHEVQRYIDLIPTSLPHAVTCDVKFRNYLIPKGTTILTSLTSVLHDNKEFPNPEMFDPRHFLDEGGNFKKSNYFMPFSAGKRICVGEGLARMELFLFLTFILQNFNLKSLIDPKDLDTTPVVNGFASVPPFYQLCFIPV
# [6] = target: human cytochrome P450 2D6 (Homo sapiens, UniProt P10635); experiment: Inhibition of human cytochrome P450 2D6; format: in vitro ADME
# human cytochrome P450 2D6, sequence (P10635 whole entry): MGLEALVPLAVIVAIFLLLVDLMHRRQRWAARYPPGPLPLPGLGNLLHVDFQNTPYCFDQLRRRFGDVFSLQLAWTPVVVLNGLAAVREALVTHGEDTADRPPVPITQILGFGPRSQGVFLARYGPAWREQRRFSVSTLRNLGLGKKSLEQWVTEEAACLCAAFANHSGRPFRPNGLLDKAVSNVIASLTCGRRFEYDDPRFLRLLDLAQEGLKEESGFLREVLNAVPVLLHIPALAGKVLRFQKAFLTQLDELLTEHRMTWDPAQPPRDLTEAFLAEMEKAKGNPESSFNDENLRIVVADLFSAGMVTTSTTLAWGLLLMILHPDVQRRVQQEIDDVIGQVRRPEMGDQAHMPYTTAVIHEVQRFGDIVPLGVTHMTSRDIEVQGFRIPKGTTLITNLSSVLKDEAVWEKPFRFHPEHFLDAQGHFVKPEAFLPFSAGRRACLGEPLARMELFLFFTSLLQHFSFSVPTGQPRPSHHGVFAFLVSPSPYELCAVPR
# [7] = target: human cytochrome P450 3A4-BFC (Homo sapiens, UniProt P08684); experiment: Inhibition of human cytochrome P450 3A4-BFC; format: in vitro ADME
# human cytochrome P450 3A4-BFC, sequence (P08684 whole entry): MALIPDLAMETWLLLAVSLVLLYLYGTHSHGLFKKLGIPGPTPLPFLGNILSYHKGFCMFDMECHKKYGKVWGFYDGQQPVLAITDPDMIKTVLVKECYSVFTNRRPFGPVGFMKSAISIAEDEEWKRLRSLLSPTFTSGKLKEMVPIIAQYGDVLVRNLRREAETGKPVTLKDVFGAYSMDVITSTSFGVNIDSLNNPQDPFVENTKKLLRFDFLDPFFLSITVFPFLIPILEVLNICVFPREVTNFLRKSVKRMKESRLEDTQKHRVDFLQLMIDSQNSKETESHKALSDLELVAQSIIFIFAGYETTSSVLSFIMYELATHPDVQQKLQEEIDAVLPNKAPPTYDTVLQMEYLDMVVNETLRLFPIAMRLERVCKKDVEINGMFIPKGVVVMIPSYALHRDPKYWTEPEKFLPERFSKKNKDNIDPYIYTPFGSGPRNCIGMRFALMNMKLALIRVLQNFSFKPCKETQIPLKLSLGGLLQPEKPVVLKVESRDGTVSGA
# [8] = target: human cytochrome P450 3A4-BQ (Homo sapiens, UniProt P08684); experiment: Inhibition of human cytochrome P450 3A4-BQ
# human cytochrome P450 3A4-BQ, sequence (P08684 whole entry): as above
# mouse 11β-HSD1, sequence (P50172 whole entry): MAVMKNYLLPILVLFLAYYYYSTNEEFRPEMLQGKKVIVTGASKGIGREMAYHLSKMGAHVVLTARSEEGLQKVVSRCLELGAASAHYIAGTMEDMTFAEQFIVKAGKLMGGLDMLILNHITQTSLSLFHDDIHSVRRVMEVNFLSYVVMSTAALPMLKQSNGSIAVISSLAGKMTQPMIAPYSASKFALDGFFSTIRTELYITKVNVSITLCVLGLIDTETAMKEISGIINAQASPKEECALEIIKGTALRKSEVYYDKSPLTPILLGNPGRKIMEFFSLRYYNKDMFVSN
solubility [1] [µg/mL],IC50 (mouse 11β-HSD1) [nM],metabolites identified [2],microsomal CLint [2] [µL/min/mg],half-life [2] [min],IC50 [3] [µM],IC50 [4] [µM],IC50 [5] [µM],IC50 [6] [µM],IC50 [7] [µM],IC50 [8] [µM],melting point [°C],SMILES
> 4000,–,–,–,–,–,–,–,–,–,–,–,"Cl.O=C(COCc1cccnc1)C12CC3CC(CC(C3)C1)C2 [Compound 62, 1-(Adamantan-1-yl)-2-(pyridin-3-ylmethoxy)ethan-1-one hydrochloride]"
–,44,no metabolites identified,8.9,68,> 100,> 100,> 100,> 100,20,78,–,"O=C(COCc1ccccn1)C12CC3CC(CC(C3)C1)C2 [Compound 28, 1-(Adamantan-1-yl)-2-(pyridin-2-ylmethoxy)ethan-1-one]"
–,35,–,–,–,36,> 100,24,–,> 100,24,116 to 117,"O=C(CS(=O)(=O)Cc1ccccn1)C12CC3CC(CC(C3)C1)C2 [Compound 43, 1-(Adamantan-1-yl)-2-[(pyridin-2-ylmethyl)sulfonyl]ethan-1-one]"
–,–,no metabolites identified,3.7,128,23,> 100,46,–,68,1.6,–,"O=C(COCc1cccnc1)C12CC3CC(CC(C3)C1)C2 [Compound 31, 1-(Adamantan-1-yl)-2-(pyridin-3-ylmethoxy)ethan-1-one]"
–,61,–,–,–,> 100,> 100,> 100,> 100,12,> 100,136 to 138,"O=C(C[S+]([O-])c1ccncc1)C12CC3CC(CC(C3)C1)C2 (stereo not shown) [Compound 18, 1-(Adamantan-1-yl)-2-(pyridine-4-sulfinyl)ethan-1-one]"
